Laboratory results from patent publication US12018229B2, “Organic compounds” (Givaudan SA, priority 2018, dated 2024).

Test: Determination of GC-odor threshold values (gas chromatograph with sniff port, panel of trained evaluators)
Details: absolute amount of compound delivered at the sniff port, identical conditions
Method: According to standard procedures known to the person skilled in the art, threshold values for volatile perfumery compounds are determined on a gas chromatograph equipped with a sniff port by a panel of trained evaluators. The lowest concentration smelled by each panelist is recorded as the individual threshold value expressed in ng (absolute amount of compound delivered at the sniff port).
Under identical conditions the odor threshold value for the individual compounds was measured.

| SMILES | odor threshold value |
| --- | --- |
| CC1=CCOC(CCCc2ccccc2)C1 (centres unmarked) [Example 1, 4-Methyl-2-(3-phenylpropyl)-3,6-dihydro-2H-pyran] | 0.02 ng |
| CC1=CC(C)OC(CCCc2ccccc2)C1 (centres unmarked) [Example 2, 4,6-Dimethyl-2-(3-phenylpropyl)-3,6-dihydro-2H-pyran] | 0.03 ng |
| CC1=CCOC(Cc2ccccc2)C1 (centres unmarked) [Example 3, 2-Benzyl-4-methyl-3,6-dihydro-2H-pyran] | 0.03 ng |
| CC1=CCOC(CCCCc2ccccc2)C1 (centres unmarked) [Example 4, 4-Methyl-2-(4-phenylbutyl)-3,6-dihydro-2H-pyran, reference compound] | 63 ng |
| CC1=CCOC(CCc2ccccc2)C1 (centres unmarked) [Example 5, 4-Methyl-2-phenethyl-3,6-dihydro-2H-pyran, reference compound] | 45 ng |
